Test results: patent US8497278B2, “Imidazo[1,2-a]pyridine compounds” (priority 2008, dated 2013)

Columns and labels:
[1] = test system: central benzodiazepine receptors; assay: Central benzodiazepine receptor binding (test of Speth et al.); conditions: 1000 nM of the compound
How it was run: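 Values are percent inhibition of central benzodiazepine receptor binding at 1000 nM compound (initial single-point screen at 1.0E-09, 1.0E-07 and 1.0E-05 M). Speth et al. binding test; nonspecific binding defined with excess unlabelled ligand and subtracted from total.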

[2] = molecular target: T1, α1 subtype containing GABA-A receptors (Homo sapiens, UniProt P14867+P18507); assay: Two-electrode voltage clamp electrophysiology in Xenopus oocytes, potentiation of GABA EC20 response, α1; type: cell-based; conditions: 100 nM compound; for activation at 0.1 µM: read-out: Percentage of potentiation alpha1
T1 construct: expressed in transfected cells; host or cells: Xenopus laevis oocytes, cRNA injected
Protocol: (§1) Electrophysiology protocol: Oocytes were prepared from adult female Xenopus laevis frogs. cRNA encoding human α1, α2, α3, α5, β3 and γ2L GABAA receptor subunits was injected into the cytoplasm of stage 5 or 6 oocytes using the Robocyte Robot (Multi Channel Systems, Reutlingen, Germany). Two-electrode voltage clamp recordings were made in 96-well plates using the Robocyte Robot. Oocytes were impaled using recording heads with two glass electrodes containing 1.5 M potassium acetate and 0.5 M KCl and held at a membrane potential of −80 mV. Oocytes were continually perfused with a ND96 solution (96 mM NaCl, 2 mM KCl, 0.1 mM CaCl2, and 5 mM HEPES, pH 7.5) using a Gilson 222 XL Liquid Handler and Gilson Minipuls 3 Peristaltic Pump (Gilson Medical Electronics, Middleton, Wis., USA). The protocol consisted of three 20-s applications of GABA that gave a 20% of the maximum response (EC20: 60 μM) to allow for headroom to determine a baseline GABA response. To assess the potentiation, oocytes were first exposed to a single 1 μM chlordiazepoxide (CDP) as a potentiation standard. Oocytes with insufficient expression levels (currents below threshold) or insufficient γ2L subunit incorporation (judged by rapid desensitization upon GABA application, or by insufficient potentiation by CDP) were not included in analysis. Following this control application, a given oocyte was exposed to test compounds at 100 nM concentrations. Only one concentration of one compound was tested per oocyte. […] One skilled in the art will recognize that subtypes contribute to the effects of GABA-A modulators. Such that compounds favoring different subtypes can have different therapeutic effects. The magnitude of modulation, for example, partial modulators can influence the effects in vivo. “++” indicates a greater modulation that “+” so that at any given subtype “++” inducates a greater amount of modulation for that subtype. In some embodiments, modulation favoring alpha 1 relative to alpha2 and/or alpha 3 can have sedative hypnotic effects. In other embodiments, compounds with reduced selectivity of alpha 1 can express anxiolytic effects with less sedation. Compounds with selectivity for alpha 5 can have memory/cognition enhancing effects.

[3] = molecular target: T2, α2 subtype containing GABA-A receptors (Homo sapiens, UniProt P18507+P47869); assay: Two-electrode voltage clamp electrophysiology in Xenopus oocytes, potentiation of GABA EC20 response, α2; type: cell-based; conditions: 100 nM compound; for activation at 0.1 µM: read-out: Percentage of potentiation alpha2
T2 construct: expressed in transfected cells; host or cells: Xenopus laevis oocytes, cRNA injected
Protocol: as §1

T2 sequence (P47869 29-451): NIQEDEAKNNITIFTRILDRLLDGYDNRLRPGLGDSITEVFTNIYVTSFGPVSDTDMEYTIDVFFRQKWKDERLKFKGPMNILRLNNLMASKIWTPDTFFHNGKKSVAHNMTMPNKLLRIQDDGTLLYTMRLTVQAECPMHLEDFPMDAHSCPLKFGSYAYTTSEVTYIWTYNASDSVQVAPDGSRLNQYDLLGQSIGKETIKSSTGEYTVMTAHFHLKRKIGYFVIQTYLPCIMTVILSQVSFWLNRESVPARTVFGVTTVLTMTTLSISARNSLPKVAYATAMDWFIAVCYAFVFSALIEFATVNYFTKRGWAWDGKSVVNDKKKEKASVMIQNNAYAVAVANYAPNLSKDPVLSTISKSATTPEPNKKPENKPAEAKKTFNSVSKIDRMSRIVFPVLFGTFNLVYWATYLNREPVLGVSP
T2 sequence (P28472 26-473 partner): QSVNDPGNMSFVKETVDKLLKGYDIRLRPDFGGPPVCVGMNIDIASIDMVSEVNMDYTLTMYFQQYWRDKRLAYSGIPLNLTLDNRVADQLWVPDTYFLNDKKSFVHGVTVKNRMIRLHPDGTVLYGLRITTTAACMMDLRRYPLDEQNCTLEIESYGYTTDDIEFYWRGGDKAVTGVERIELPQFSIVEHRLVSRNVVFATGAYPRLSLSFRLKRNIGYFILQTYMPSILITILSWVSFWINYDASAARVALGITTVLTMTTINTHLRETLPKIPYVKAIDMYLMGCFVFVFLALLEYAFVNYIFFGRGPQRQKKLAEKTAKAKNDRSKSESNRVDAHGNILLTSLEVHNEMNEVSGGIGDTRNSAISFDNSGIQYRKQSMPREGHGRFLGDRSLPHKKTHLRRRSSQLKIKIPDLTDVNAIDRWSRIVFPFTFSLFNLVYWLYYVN
T2 sequence (P18507 40-475): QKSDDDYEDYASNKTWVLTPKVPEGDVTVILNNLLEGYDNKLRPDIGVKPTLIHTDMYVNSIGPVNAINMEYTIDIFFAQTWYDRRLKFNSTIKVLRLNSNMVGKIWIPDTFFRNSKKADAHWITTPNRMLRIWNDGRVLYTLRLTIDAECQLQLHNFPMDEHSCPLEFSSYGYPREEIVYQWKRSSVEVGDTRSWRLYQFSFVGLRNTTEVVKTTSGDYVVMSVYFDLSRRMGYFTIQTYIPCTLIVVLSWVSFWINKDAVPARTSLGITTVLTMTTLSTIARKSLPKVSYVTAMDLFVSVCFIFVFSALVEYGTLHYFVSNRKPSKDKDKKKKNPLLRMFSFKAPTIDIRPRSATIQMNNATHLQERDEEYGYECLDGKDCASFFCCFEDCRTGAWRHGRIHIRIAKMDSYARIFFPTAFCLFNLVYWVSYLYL
T1 sequence (P14867 28-456): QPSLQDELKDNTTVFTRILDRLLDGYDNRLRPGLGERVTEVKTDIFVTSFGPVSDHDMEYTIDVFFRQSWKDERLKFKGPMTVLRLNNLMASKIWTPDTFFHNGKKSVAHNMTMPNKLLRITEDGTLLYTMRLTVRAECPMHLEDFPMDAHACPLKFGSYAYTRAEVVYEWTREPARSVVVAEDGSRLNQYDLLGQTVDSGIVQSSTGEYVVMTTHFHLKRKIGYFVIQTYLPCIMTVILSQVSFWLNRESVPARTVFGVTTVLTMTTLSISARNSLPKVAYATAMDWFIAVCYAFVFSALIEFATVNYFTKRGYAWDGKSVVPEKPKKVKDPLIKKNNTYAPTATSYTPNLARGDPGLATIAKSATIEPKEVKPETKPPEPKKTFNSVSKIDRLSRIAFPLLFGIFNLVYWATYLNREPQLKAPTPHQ
T1 sequence (P28472 26-473 partner): as the sequence (P28472 26-473 partner) above
T1 sequence (P18507 40-475): as the sequence (P18507 40-475) above

Structure (SMILES)	% Inhibition at 1000 nM for CBZD [1]	Percentage of potentiation alpha1 [2]	Percentage of potentiation alpha2 [3]	activation at 0.1 µM [2] [%]	activation at 0.1 µM [3] [%]
Cc1ccc(-c2nc3ccc(C)cn3c2Cn2ccnc2C)cc1 [Compound 2, 6-Methyl-3-((2-methyl-1H-imidazol-1-yl)methyl)-2-p-tolylH-imidazo[1,2-a]pyridine]	++ (percentage of inhibition of central BZD site binding is greater than 80% in the presence of 1000 nM of the compound)	+ (percentage of potentiation is greater than or equal to 10% but less than 50% in the presence of 100 nM of the compound)	+ (percentage of potentiation is greater than or equal to 10% but less than 50% in the presence of 100 nM of the compound)	–	–
CCc1nccn1Cc1c(-c2ccc(C)cc2)nc2ccc(C)cn12 [Compound 4, 3-((2-Ethyl-1H-imidazol-1-yl)methyl)-6-methyl-2-p-tolylH-imidazo[1,2-a]pyridine]	++ (percentage of inhibition of central BZD site binding is greater than 80% in the presence of 1000 nM of the compound)	+ (percentage of potentiation is greater than or equal to 10% but less than 50% in the presence of 100 nM of the compound)	0 (percentage of potentiation is between about 10% to about −10%)	–	–
Cc1ccc(-c2nc3ccc(C)cn3c2Cn2ccnn2)cc1 [Compound 6, 3-((1H-1,2,3-triazol-1-yl)methyl)-6-methyl-2-p-tolylH-imidazo[1,2-a]pyridine]	++ (percentage of inhibition of central BZD site binding is greater than 80% in the presence of 1000 nM of the compound)	+ (percentage of potentiation is greater than or equal to 10% but less than 50% in the presence of 100 nM of the compound)	+ (percentage of potentiation is greater than or equal to 10% but less than 50% in the presence of 100 nM of the compound)	–	–
Cc1ccc(-c2nc3ccc(C)cn3c2Cn2cncn2)cc1 [Compound 7, 3-((1H-1,2,4-triazol-1-yl)methyl)-6-methyl-2-p-tolylH-imidazo[1,2-a]pyridine]	++ (percentage of inhibition of central BZD site binding is greater than 80% in the presence of 1000 nM of the compound)	+ (percentage of potentiation is greater than or equal to 10% but less than 50% in the presence of 100 nM of the compound)	+ (percentage of potentiation is greater than or equal to 10% but less than 50% in the presence of 100 nM of the compound)	–	–
Cc1ccc(-c2nc3ccc(C)cn3c2Cn2cccn2)cc1 [Compound 8, 3-((1H-pyrazol-1-yl)methyl)-6-methyl-2-p-tolylH-imidazo[1,2-a]pyridine]	++ (percentage of inhibition of central BZD site binding is greater than 80% in the presence of 1000 nM of the compound)	++ (percentage of potentiation is greater than or equal to 50% in the presence of 100 nM of the compound)	+ (percentage of potentiation is greater than or equal to 10% but less than 50% in the presence of 100 nM of the compound)	–	–
Cc1ccc(-c2nc3ccc(C)cn3c2Cn2nc(C)cc2C)cc1 [Compound 9, 6-Methyl-3-((3,5-dimethyl-1H-pyrazol-1-yl)methyl)-2-p-tolylH-imidazo[1,2-a]pyridine]	++ (percentage of inhibition of central BZD site binding is greater than 80% in the presence of 1000 nM of the compound)	+ (percentage of potentiation is greater than or equal to 10% but less than 50% in the presence of 100 nM of the compound)	+ (percentage of potentiation is greater than or equal to 10% but less than 50% in the presence of 100 nM of the compound)	–	–
Nc1ccn(Cc2c(-c3ccc(Cl)cc3)nc3ccccn23)c(=O)n1 [Compound 106, 4-amino-1-((2-(4-chlorophenyl)imidazo[1,2-a]pyridin-3-yl)methyl)pyrimidin-2(1H)-one]	–	–	–	10 to 50	10 to 50
Cc1ccc(-c2nc3ccc(C)cn3c2CNc2nccnn2)cc1 [Compound 145, (6-Methyl-2-p-tolyl-imidazo[1,2-a]pyridin-3-ylmethyl)-[1,2,4]triazin-3-yl-amine]	–	–	–	≥ 50	10 to 50
NNC(=O)c1nc(Cc2c(-c3ccc(Cl)cc3)nc3ccccn23)no1 [Compound 215, 3-((2-(4-chlorophenyl)imidazo[1,2-a]pyridin-3-yl)methyl)-1,2,4-oxadiazole-5-carbohydrazide]	–	–	–	-10 to 10	10 to 50
NC(=O)c1nc(Cc2c(-c3ccc(Cl)cc3)nc3ccc(F)cn23)no1 [Compound 217, 3-((2-(4-chlorophenyl)-6-fluoroimidazo[1,2-a]pyridin-3-yl)methyl)-1,2,4-oxadiazole-5-carboxamide]	–	–	–	10 to 50	≥ 50
CNC(=O)c1nc(Cc2c(-c3ccc(F)cc3)nc3ccc(Cl)cn23)no1 [Compound 218, 3-((2-(4-fluorophenyl)-6-chloroimidazo[1,2-a]pyridin-3-yl)methyl)-1,2,4-oxadiazole-5-N-methyl-carboxamide]	–	+ (percentage of potentiation is greater than or equal to 10% but less than 50% in the presence of 100 nM of the compound)	++ (percentage of potentiation is greater than or equal to 50% in the presence of 100 nM of the compound)	–	–
CNC(=O)c1nc(Cc2c(-c3ccc(F)cc3)nc3ccc(F)cn23)no1 [Compound 221, 3-((6-fluoro-2-(4-fluorophenyl)imidazo[1,2-a]pyridin-3-yl)methyl)-N-methyl-1,2,4-oxadiazole-5-carboxamide]	–	–	–	-10 to 10	10 to 50
O=C(NO)c1nc(Cc2c(-c3ccc(Cl)cc3)nc3ccc(F)cn23)no1 [Compound 222, 3-((2-(4-chlorophenyl)-6-fluoroimidazo[1,2-a]pyridin-3-yl)methyl)-N-hydroxy-1,2,4-oxadiazole-5-carboxamide]	–	–	–	-10 to 10	≥ 50
O=C(NO)c1nc(Cc2c(-c3ccc(F)cc3)nc3ccc(F)cn23)no1 [Compound 223, 3-((2-(4-fluorophenyl)-6-fluoroimidazo[1,2-a]pyridin-3-yl)methyl)-N-hydroxy-1,2,4-oxadiazole-5-carboxamide]	–	–	–	≤ -10	10 to 50
CONC(=O)c1nc(Cc2c(-c3ccc(F)cc3)nc3ccc(F)cn23)no1 [Compound 224, 3-((2-(4-fluorophenyl)-6-fluoroimidazo[1,2-a]pyridin-3-yl)methyl)-N-methyoxy-1,2,4-oxadiazole-5-carboxamide]	–	0 (percentage of potentiation is between about 10% to about −10%)	+ (percentage of potentiation is greater than or equal to 10% but less than 50% in the presence of 100 nM of the compound)	–	–
CN(O)C(=O)c1nc(Cc2c(-c3ccc(F)cc3)nc3ccc(F)cn23)no1 [Compound 225, 3-((6-fluoro-2-(4-fluorophenyl)imidazo-[1,2-a]pyridin-3-yl)methyl)-N-hydroxy-N-methyl-1,2,4-oxadiazole-5-carboxamide]	–	–	–	≤ -10	10 to 50
